Test results: PubChem BioAssay (NCI)
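Compound exposure: 48 hours, 5 concentrations, 96-well plates. The concentration for full growth arrest is given as TGI.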

Columns and labels:
Assay in all cases: NCI anticancer screen, dose series, 48 h
SK-MEL-28 melanoma = test system: SK-MEL-28 melanoma
NCI-H460 lung = test system: NCI-H460 lung
SN12C renal = test system: SN12C renal
CCRF-CEM leukemia = test system: CCRF-CEM leukemia
UO-31 renal = test system: UO-31 renal
A498 renal = test system: A498 renal
DU-145 prostate = test system: DU-145 prostate
BT-549 breast = test system: BT-549 breast
HCC-2998 colon = test system: HCC-2998 colon
IGROV1 ovarian = test system: IGROV1 ovarian
UACC-62 melanoma = test system: UACC-62 melanoma
UACC-257 melanoma = test system: UACC-257 melanoma
MDA-MB-435 = test system: MDA-MB-435
HL-60(TB) leukemia = test system: HL-60(TB) leukemia
OVCAR-8 ovarian = test system: OVCAR-8 ovarian
MALME-3M melanoma = test system: MALME-3M melanoma
MCF7 breast = test system: MCF7 breast
SNB-75 CNS = test system: SNB-75 CNS
HCT-15 colon = test system: HCT-15 colon
NCI-H226 lung = test system: NCI-H226 lung
COLO 205 colon = test system: COLO 205 colon
LOX IMVI melanoma = test system: LOX IMVI melanoma
SR leukemia = test system: SR leukemia
SK-MEL-2 melanoma = test system: SK-MEL-2 melanoma
SF-268 CNS = test system: SF-268 CNS
SW-620 colon = test system: SW-620 colon
RXF 393 renal = test system: RXF 393 renal
SK-MEL-5 melanoma = test system: SK-MEL-5 melanoma
A549 NSCLC = test system: A549 NSCLC
HOP-62 NSCLC = test system: HOP-62 NSCLC
NCI-H23 lung = test system: NCI-H23 lung
TK-10 renal = test system: TK-10 renal
MOLT-4 leukemia = test system: MOLT-4 leukemia
T-47D breast = test system: T-47D breast
EKVX NSCLC = test system: EKVX NSCLC
NCI/ADR-RES ovarian = test system: NCI/ADR-RES ovarian
MDA-MB-231 breast = test system: MDA-MB-231 breast
SF-539 CNS = test system: SF-539 CNS
SK-OV-3 ovarian = test system: SK-OV-3 ovarian
HT29 colon = test system: HT29 colon
786-0 renal = test system: 786-0 renal
HOP-92 NSCLC = test system: HOP-92 NSCLC
MDA-N = test system: MDA-N
NCI-H522 lung = test system: NCI-H522 lung
ACHN renal = test system: ACHN renal
SNB-19 CNS = test system: SNB-19 CNS
K-562 leukemia = test system: K-562 leukemia
HCT-116 colon = test system: HCT-116 colon
OVCAR-5 ovarian = test system: OVCAR-5 ovarian
KM12 colon = test system: KM12 colon
M14 melanoma = test system: M14 melanoma
SF-295 CNS = test system: SF-295 CNS
U251 CNS = test system: U251 CNS
HS 578T breast = test system: HS 578T breast
RPMI-8226 leukemia = test system: RPMI-8226 leukemia

With `C/C(=N\NC(=S)N1CCN(c2ccccn2)CC1)c1cccc(C)n1` as the compound, how does the TGI (SK-MEL-28 melanoma) read?
Its TGI is 25.3 µM.

And the TGI (NCI-H460 lung)?
The TGI was 11.9 µM.

What about the TGI (SN12C renal) of the same compound?
The TGI was 21.9 µM.

What about the TGI (CCRF-CEM leukemia) of the same compound?
Its TGI is greater than 100 µM.

What about the TGI (UO-31 renal) of the same compound?
Its TGI is 30.6 µM.

And the TGI (A498 renal)?
Its TGI is 6.33 µM.

And the TGI (DU-145 prostate)?
The TGI was 14.6 µM.

And the TGI (BT-549 breast)?
The TGI was 18 µM.

What about the TGI (HCC-2998 colon) of the same compound?
The TGI was 24.8 µM.

What about the TGI (IGROV1 ovarian) of the same compound?
The TGI was 4.01 µM.

And the TGI (UACC-62 melanoma)?
The TGI was 7.16 µM.

And the TGI (UACC-257 melanoma)?
Its TGI is 16.8 µM.

What about the TGI (MDA-MB-435) of the same compound?
The TGI was 17.4 µM.

And the TGI (HL-60(TB) leukemia)?
The TGI was 17.6 µM.

And the TGI (OVCAR-8 ovarian)?
Its TGI is 14.1 µM.

What about the TGI (MALME-3M melanoma) of the same compound?
Its TGI is 19.3 µM.

And the TGI (MCF7 breast)?
Its TGI is 12.4 µM.

What about the TGI (SNB-75 CNS) of the same compound?
Its TGI is 12.5 µM.

And the TGI (HCT-15 colon)?
Its TGI is 16 µM.

And the TGI (NCI-H226 lung)?
The TGI was 9.38 µM.

What about the TGI (COLO 205 colon) of the same compound?
The TGI was 11.3 µM.

And the TGI (LOX IMVI melanoma)?
Its TGI is 17.8 µM.

What about the TGI (SR leukemia) of the same compound?
Its TGI is greater than 100 µM.

And the TGI (SK-MEL-2 melanoma)?
Its TGI is 6.78 µM.

And the TGI (SF-268 CNS)?
The TGI was 19.9 µM.

And the TGI (SW-620 colon)?
Its TGI is 14.2 µM.

And the TGI (RXF 393 renal)?
The TGI was 4.98 µM.

What about the TGI (SK-MEL-5 melanoma) of the same compound?
The TGI was 7.06 µM.

What about the TGI (A549 NSCLC) of the same compound?
Its TGI is 18.5 µM.

And the TGI (HOP-62 NSCLC)?
Its TGI is 20.1 µM.

What about the TGI (NCI-H23 lung) of the same compound?
The TGI was 21.8 µM.

And the TGI (TK-10 renal)?
Its TGI is 21.5 µM.

And the TGI (MOLT-4 leukemia)?
Its TGI is 53.2 µM.

And the TGI (T-47D breast)?
Its TGI is 35 µM.

What about the TGI (EKVX NSCLC) of the same compound?
The TGI was 10.5 µM.

What about the TGI (NCI/ADR-RES ovarian) of the same compound?
Its TGI is 27.5 µM.

What about the TGI (MDA-MB-231 breast) of the same compound?
The TGI was 13.1 µM.

What about the TGI (SF-539 CNS) of the same compound?
Its TGI is 6.12 µM.

And the TGI (SK-OV-3 ovarian)?
The TGI was 21.4 µM.

What about the TGI (HT29 colon) of the same compound?
The TGI was 14.5 µM.

And the TGI (786-0 renal)?
The TGI was 3.31 µM.

And the TGI (HOP-92 NSCLC)?
The TGI was 14.3 µM.

What about the TGI (MDA-N) of the same compound?
Its TGI is 17.8 µM.

And the TGI (NCI-H522 lung)?
The TGI was 0.59 µM.

And the TGI (ACHN renal)?
Its TGI is 12.7 µM.

And the TGI (SNB-19 CNS)?
The TGI was 19.9 µM.

And the TGI (K-562 leukemia)?
Its TGI is greater than 38.2 µM.

What about the TGI (HCT-116 colon) of the same compound?
Its TGI is 10.5 µM.

And the TGI (OVCAR-5 ovarian)?
The TGI was 13.3 µM.

What about the TGI (KM12 colon) of the same compound?
The TGI was 18 µM.

And the TGI (M14 melanoma)?
The TGI was 9.23 µM.

What about the TGI (SF-295 CNS) of the same compound?
The TGI was 12.3 µM.

And the TGI (U251 CNS)?
The TGI was 17.5 µM.

And the TGI (HS 578T breast)?
The TGI was 43.5 µM.

And the TGI (RPMI-8226 leukemia)?
Its TGI is 12.6 µM.
